Experimental findings from ChEMBL document CHEMBL1909046, “DrugMatrix in vitro pharmacology data” are described below.

Chain of 5-hydroxytryptamine receptor 6 (P50406 whole entry): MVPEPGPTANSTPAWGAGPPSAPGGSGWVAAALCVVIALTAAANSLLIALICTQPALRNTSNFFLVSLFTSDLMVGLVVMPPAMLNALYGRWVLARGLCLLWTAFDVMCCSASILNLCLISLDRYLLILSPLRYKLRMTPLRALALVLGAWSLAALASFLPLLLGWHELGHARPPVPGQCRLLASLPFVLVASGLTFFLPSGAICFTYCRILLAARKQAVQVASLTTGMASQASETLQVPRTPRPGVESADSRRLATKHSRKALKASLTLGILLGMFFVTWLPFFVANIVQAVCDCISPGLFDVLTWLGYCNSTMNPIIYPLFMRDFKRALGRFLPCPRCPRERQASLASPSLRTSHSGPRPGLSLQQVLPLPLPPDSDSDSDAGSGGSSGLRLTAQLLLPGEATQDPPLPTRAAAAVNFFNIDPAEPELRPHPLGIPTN

One assay addresses T1, Neuropeptide Y receptor type 1 (Homo sapiens, UniProt P25929).
T1 sequence (P25929 whole entry): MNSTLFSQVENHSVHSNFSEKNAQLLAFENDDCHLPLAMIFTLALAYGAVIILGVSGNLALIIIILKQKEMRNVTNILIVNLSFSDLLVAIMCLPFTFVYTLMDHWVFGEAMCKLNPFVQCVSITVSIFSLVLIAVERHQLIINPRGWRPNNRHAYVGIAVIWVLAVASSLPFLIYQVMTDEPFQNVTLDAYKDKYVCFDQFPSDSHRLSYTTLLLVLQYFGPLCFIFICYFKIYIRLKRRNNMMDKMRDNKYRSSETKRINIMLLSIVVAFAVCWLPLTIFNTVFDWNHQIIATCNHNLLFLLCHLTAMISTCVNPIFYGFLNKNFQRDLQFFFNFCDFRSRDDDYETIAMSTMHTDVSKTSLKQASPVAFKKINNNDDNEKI
Type of assay: cell membranes, Membrane. To be noted: sk-n-mc.
Take `CC(=O)O[C@]1(C(C)=O)CC[C@H]2[C@@H]3C=C(C)C4=CC(=O)CC[C@]4(C)[C@H]3CC[C@@]21C` [MEGESTROL ACETATE]: the IC50 entry is on record as “Not Active”.

On to `COc1ccccc1OCC(O)COC(N)=O` (configuration not stated) [METHOCARBAMOL], for which the IC50 result is given as “Not Active”.

`CN(Cc1cnc2nc(N)nc(N)c2n1)c1ccc(C(=O)N[C@@H](CCC(=O)O)C(=O)O)cc1` [METHOTREXATE]: the IC50 entry was “Not Active”.

As for `COC(=O)c1ccccc1O` [METHYL SALICYLATE], the IC50 entry is given as “Not Active”.

In the case of `COc1ccc2cc(CCC(C)=O)ccc2c1` [NABUMETONE], the IC50 result was “Not Active”.

In the case of `O=C(O)c1cccnc1` [NIACIN], the IC50 entry is given as “Not Active”.

`CNC(=C[N+](=O)[O-])NCCSCc1csc(CN(C)C)n1` [NIZATIDINE]: the IC50 entry is listed as “Not Active”.

Regarding `C[C@]12C/C(=C/O)C(=O)C[C@@H]1CC[C@@H]1[C@@H]2CC[C@@]2(C)[C@H]1CC[C@]2(C)O` [OXYMETHOLONE], the IC50 entry is listed as “Not Active”.

A further assay concerns the target T2, Alpha-2A adrenergic receptor (Homo sapiens, UniProt P08913). Also: in other assays of this panel Not Active means under 50% inhibition at 10 µM.
T2 sequence (P08913 whole entry): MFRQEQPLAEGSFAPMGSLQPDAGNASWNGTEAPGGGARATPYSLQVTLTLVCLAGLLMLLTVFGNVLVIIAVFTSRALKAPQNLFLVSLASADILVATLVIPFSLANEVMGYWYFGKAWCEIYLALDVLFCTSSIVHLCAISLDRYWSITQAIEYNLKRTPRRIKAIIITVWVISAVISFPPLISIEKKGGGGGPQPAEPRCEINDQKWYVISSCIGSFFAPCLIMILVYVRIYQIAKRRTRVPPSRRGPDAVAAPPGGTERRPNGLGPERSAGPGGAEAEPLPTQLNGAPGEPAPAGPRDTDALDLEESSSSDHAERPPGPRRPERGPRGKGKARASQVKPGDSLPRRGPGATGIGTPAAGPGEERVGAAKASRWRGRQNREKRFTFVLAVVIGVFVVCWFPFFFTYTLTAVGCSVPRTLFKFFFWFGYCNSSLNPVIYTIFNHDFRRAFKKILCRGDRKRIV
Type of assay: cell membranes, Sf9, Membrane. To be noted: sf9.
With `CC(=O)O[C@]1(C(C)=O)CC[C@H]2[C@@H]3C=C(C)C4=CC(=O)CC[C@]4(C)[C@H]3CC[C@@]21C` [MEGESTROL ACETATE], the IC50 entry is “Not Active”.

As for `COc1ccccc1OCC(O)COC(N)=O` (configuration not stated) [METHOCARBAMOL], the IC50 entry was “Not Active”.

Take `CN(Cc1cnc2nc(N)nc(N)c2n1)c1ccc(C(=O)N[C@@H](CCC(=O)O)C(=O)O)cc1` [METHOTREXATE]: the IC50 entry is “Not Active”.

For `COC(=O)c1ccccc1O` [METHYL SALICYLATE], the IC50 entry is “Not Active”.

For the compound `COc1ccc2cc(CCC(C)=O)ccc2c1` [NABUMETONE], the IC50 result is given as “Not Active”.

Take `O=C(O)c1cccnc1` [NIACIN]: the IC50 result is on record as “Not Active”.

Take `CNC(=C[N+](=O)[O-])NCCSCc1csc(CN(C)C)n1` [NIZATIDINE]: the IC50 result is recorded as “Not Active”.

Consider `C[C@]12C/C(=C/O)C(=O)C[C@@H]1CC[C@@H]1[C@@H]2CC[C@@]2(C)[C@H]1CC[C@]2(C)O` [OXYMETHOLONE], for which the IC50 entry is listed as “Not Active”.

Tested on in the next assay: not listed separately
In words: DRUGMATRIX: GABAA, Chloride Channel, TBOB radioligand binding (ligand: [3H] TBOB). Type of assay: cell membranes, Rattus norvegicus, Wistar, Cerebral cortex, Membrane. To be noted: Not Active = under 50% inhibition at 10 µM.
For `CC(=O)O[C@]1(C(C)=O)CC[C@H]2[C@@H]3C=C(C)C4=CC(=O)CC[C@]4(C)[C@H]3CC[C@@]21C` [MEGESTROL ACETATE], the IC50 entry is “Not Active” and the Ki entry is “Not Active”.

For `COc1ccccc1OCC(O)COC(N)=O` (configuration not stated) [METHOCARBAMOL], the IC50 result is reported as “Not Active” and the Ki entry is given as “Not Active”.

Consider `CN(Cc1cnc2nc(N)nc(N)c2n1)c1ccc(C(=O)N[C@@H](CCC(=O)O)C(=O)O)cc1` [METHOTREXATE], for which the IC50 result is “Not Active” and the Ki result is given as “Not Active”.

With `COC(=O)c1ccccc1O` [METHYL SALICYLATE], the IC50 entry is “Not Active” and the Ki result is recorded as “Not Active”.

Consider `COc1ccc2cc(CCC(C)=O)ccc2c1` [NABUMETONE], for which the IC50 entry is listed as “Not Active” and the Ki result was “Not Active”.

Regarding `O=C(O)c1cccnc1` [NIACIN], the IC50 entry is listed as “Not Active” and the Ki entry was “Not Active”.

As to `CNC(=C[N+](=O)[O-])NCCSCc1csc(CN(C)C)n1` [NIZATIDINE], the IC50 entry is “Not Active” and the Ki entry is “Not Active”.

Consider `C[C@]12C/C(=C/O)C(=O)C[C@@H]1CC[C@@H]1[C@@H]2CC[C@@]2(C)[C@H]1CC[C@]2(C)O` [OXYMETHOLONE], for which the IC50 result is given as “Not Active” and the Ki result is on record as “Not Active”.

Another assay concerns the target 5-hydroxytryptamine receptor 6 (Homo sapiens, UniProt P50406). The class given is cell membranes, HeLa, Membrane. To be noted: hela. Also: in other assays of this panel Not Active means under 50% inhibition at 10 µM.
Regarding `CC(=O)O[C@]1(C(C)=O)CC[C@H]2[C@@H]3C=C(C)C4=CC(=O)CC[C@]4(C)[C@H]3CC[C@@]21C` [MEGESTROL ACETATE], the IC50 entry is “Not Active”.

As for `COc1ccccc1OCC(O)COC(N)=O` (configuration not stated) [METHOCARBAMOL], the IC50 result is reported as “Not Active”.

With `CN(Cc1cnc2nc(N)nc(N)c2n1)c1ccc(C(=O)N[C@@H](CCC(=O)O)C(=O)O)cc1` [METHOTREXATE], the IC50 result was “Not Active”.

On to `COC(=O)c1ccccc1O` [METHYL SALICYLATE], for which the IC50 entry is reported as “Not Active”.

`COc1ccc2cc(CCC(C)=O)ccc2c1` [NABUMETONE]: the IC50 entry was “Not Active”.

For the compound `O=C(O)c1cccnc1` [NIACIN], the IC50 result is recorded as “Not Active”.

On to `CNC(=C[N+](=O)[O-])NCCSCc1csc(CN(C)C)n1` [NIZATIDINE], for which the IC50 result is “Not Active”.

As to `C[C@]12C/C(=C/O)C(=O)C[C@@H]1CC[C@@H]1[C@@H]2CC[C@@]2(C)[C@H]1CC[C@]2(C)O` [OXYMETHOLONE], the IC50 result is “Not Active”.

The target in the next assay is T3, Adenosine receptor A3 (Homo sapiens, UniProt P0DMS8).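 Also: radioligand binding assay with AB-MECA serving as the labeled ligand; in other assays of this panel Not Active means under 50% inhibition at 10 µM.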
T3 sequence (P0DMS8 whole entry): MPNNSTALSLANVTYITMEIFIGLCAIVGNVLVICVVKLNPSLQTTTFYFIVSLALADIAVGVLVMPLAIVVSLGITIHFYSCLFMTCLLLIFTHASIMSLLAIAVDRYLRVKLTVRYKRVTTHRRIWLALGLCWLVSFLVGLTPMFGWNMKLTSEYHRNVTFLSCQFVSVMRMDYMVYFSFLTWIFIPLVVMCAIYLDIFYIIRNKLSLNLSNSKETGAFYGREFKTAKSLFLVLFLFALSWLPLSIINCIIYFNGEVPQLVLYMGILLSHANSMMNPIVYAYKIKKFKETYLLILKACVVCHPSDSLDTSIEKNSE
The class given is cell membranes, CHO-K1, Membrane. The note with it: cho-k1.
In the case of `CC(=O)O[C@]1(C(C)=O)CC[C@H]2[C@@H]3C=C(C)C4=CC(=O)CC[C@]4(C)[C@H]3CC[C@@]21C` [MEGESTROL ACETATE], the IC50 entry is reported as “Not Active”.

In the case of `COc1ccccc1OCC(O)COC(N)=O` (configuration not stated) [METHOCARBAMOL], the IC50 entry is listed as “Not Active”.

As for `CN(Cc1cnc2nc(N)nc(N)c2n1)c1ccc(C(=O)N[C@@H](CCC(=O)O)C(=O)O)cc1` [METHOTREXATE], the IC50 result is reported as “Not Active”.

For the compound `COC(=O)c1ccccc1O` [METHYL SALICYLATE], the IC50 result is listed as “Not Active”.

As for `COc1ccc2cc(CCC(C)=O)ccc2c1` [NABUMETONE], the IC50 result is recorded as “Not Active”.

`O=C(O)c1cccnc1` [NIACIN]: the IC50 result was “Not Active”.

On to `CNC(=C[N+](=O)[O-])NCCSCc1csc(CN(C)C)n1` [NIZATIDINE], for which the IC50 entry was “Not Active”.

For the compound `C[C@]12C/C(=C/O)C(=O)C[C@@H]1CC[C@@H]1[C@@H]2CC[C@@]2(C)[C@H]1CC[C@]2(C)O` [OXYMETHOLONE], the IC50 entry is given as “Not Active”.

Tested on in the next assay: not listed separately
In words: DRUGMATRIX: Sodium/nucleoside co-transporter radioligand binding (ligand: nitrobenzylthioinosine). The class given is cell membranes, Cavia porcellus, Dunkin-Hartley, Cerebral cortex, Membrane. The note with it: Not Active = under 50% inhibition at 10 µM.
Turning to `CC(=O)O[C@]1(C(C)=O)CC[C@H]2[C@@H]3C=C(C)C4=CC(=O)CC[C@]4(C)[C@H]3CC[C@@]21C` [MEGESTROL ACETATE], the IC50 result is on record as “Not Active” and the Ki entry is given as “Not Active”.

On to `COc1ccccc1OCC(O)COC(N)=O` (configuration not stated) [METHOCARBAMOL], for which the IC50 entry is “Not Active” and the Ki entry was “Not Active”.

Regarding `CN(Cc1cnc2nc(N)nc(N)c2n1)c1ccc(C(=O)N[C@@H](CCC(=O)O)C(=O)O)cc1` [METHOTREXATE], the IC50 result was “Not Active” and the Ki entry is listed as “Not Active”.

As to `COC(=O)c1ccccc1O` [METHYL SALICYLATE], the IC50 entry is listed as “Not Active” and the Ki result is given as “Not Active”.

Take `COc1ccc2cc(CCC(C)=O)ccc2c1` [NABUMETONE]: the IC50 entry is “Not Active” and the Ki entry is reported as “Not Active”.

With `O=C(O)c1cccnc1` [NIACIN], the IC50 result is on record as “Not Active” and the Ki entry is given as “Not Active”.

For the compound `CNC(=C[N+](=O)[O-])NCCSCc1csc(CN(C)C)n1` [NIZATIDINE], the IC50 entry was “Not Active” and the Ki entry was “Not Active”.

For the compound `C[C@]12C/C(=C/O)C(=O)C[C@@H]1CC[C@@H]1[C@@H]2CC[C@@]2(C)[C@H]1CC[C@]2(C)O` [OXYMETHOLONE], the IC50 result was “Not Active” and the Ki entry is “Not Active”.

A further assay deals with Melanocortin receptor 5 (Homo sapiens, UniProt P33032). Type of assay: cell membranes, HEK293, Membrane. To be noted: hek293.
Chain of Melanocortin receptor 5 (P33032 whole entry): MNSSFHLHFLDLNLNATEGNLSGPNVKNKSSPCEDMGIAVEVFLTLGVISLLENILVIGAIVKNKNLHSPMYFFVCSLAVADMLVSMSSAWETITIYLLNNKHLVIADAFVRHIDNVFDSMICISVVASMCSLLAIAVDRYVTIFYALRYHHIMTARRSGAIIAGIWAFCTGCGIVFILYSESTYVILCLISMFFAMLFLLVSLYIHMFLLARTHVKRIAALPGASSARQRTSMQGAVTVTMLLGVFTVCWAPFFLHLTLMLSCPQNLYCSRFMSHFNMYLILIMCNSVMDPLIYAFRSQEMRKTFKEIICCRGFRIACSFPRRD
In the case of `CC(=O)O[C@]1(C(C)=O)CC[C@H]2[C@@H]3C=C(C)C4=CC(=O)CC[C@]4(C)[C@H]3CC[C@@]21C` [MEGESTROL ACETATE], the IC50 result was “Not Active”.

On to `COc1ccccc1OCC(O)COC(N)=O` (configuration not stated) [METHOCARBAMOL], for which the IC50 result is “Not Active”.

Turning to `CN(Cc1cnc2nc(N)nc(N)c2n1)c1ccc(C(=O)N[C@@H](CCC(=O)O)C(=O)O)cc1` [METHOTREXATE], the IC50 result is reported as “Not Active”.

In the case of `COC(=O)c1ccccc1O` [METHYL SALICYLATE], the IC50 result was “Not Active”.

Turning to `COc1ccc2cc(CCC(C)=O)ccc2c1` [NABUMETONE], the IC50 result is on record as “Not Active”.

`O=C(O)c1cccnc1` [NIACIN]: the IC50 entry is recorded as “Not Active”.

For `CNC(=C[N+](=O)[O-])NCCSCc1csc(CN(C)C)n1` [NIZATIDINE], the IC50 result is listed as “Not Active”.

Turning to `C[C@]12C/C(=C/O)C(=O)C[C@@H]1CC[C@@H]1[C@@H]2CC[C@@]2(C)[C@H]1CC[C@]2(C)O` [OXYMETHOLONE], the IC50 entry was “Not Active”.
